In ChEMBL document CHEMBL4417629, “Inhibitors of RAD52 Recombination Protein and Methods Using Same” (2018):
Positions count from the first letter of the chain named. One block for each compound: values may come before it. The source made the active and inactive calls. No cut-off for these calls is given here.

How the values were obtained:
[1] = target: T1, DNA repair protein RAD51 homolog 1 (Homo sapiens) (UniProt Q06609); experiment: Inhibition of RAD51 (unknown origin) assessed as inhibition of DNA pairing by measuring D-loop formation between [32P]-ssDNA and homologous supercoiled pUC19 DNA at 30 uM incubated for 15 mins by gel electrophoresis method relative to control
T1 sequence (whole entry): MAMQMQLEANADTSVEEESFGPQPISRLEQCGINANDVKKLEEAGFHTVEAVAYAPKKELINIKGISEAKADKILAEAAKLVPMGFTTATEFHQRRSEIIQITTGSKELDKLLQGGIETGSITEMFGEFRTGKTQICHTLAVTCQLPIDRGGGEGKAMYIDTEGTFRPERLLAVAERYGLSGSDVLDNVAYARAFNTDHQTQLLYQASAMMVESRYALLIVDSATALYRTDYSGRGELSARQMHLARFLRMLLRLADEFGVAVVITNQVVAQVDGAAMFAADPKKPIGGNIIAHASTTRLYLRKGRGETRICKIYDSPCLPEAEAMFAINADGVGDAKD

[2] = target: T2, DNA repair protein RAD52 homolog (Homo sapiens) (UniProt P43351); experiment: Inhibition of RAD52 (unknown origin) assessed as inhibition of DNA pairing using [32P]-ssDNA by measuring D-loop formation incubated for 15 mins by gel electrophoresis method
T2 sequence (whole entry): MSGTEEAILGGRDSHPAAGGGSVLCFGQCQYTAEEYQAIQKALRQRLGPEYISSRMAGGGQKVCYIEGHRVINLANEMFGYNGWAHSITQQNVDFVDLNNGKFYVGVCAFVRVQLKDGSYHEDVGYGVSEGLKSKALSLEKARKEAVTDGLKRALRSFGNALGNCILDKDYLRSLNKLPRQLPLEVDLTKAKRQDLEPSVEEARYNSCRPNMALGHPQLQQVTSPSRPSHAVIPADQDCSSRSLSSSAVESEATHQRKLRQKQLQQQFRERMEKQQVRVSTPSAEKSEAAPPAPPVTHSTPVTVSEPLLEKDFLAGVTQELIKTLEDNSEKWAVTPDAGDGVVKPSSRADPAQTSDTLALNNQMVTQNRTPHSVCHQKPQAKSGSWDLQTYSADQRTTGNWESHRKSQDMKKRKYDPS

[3] = target: T1, DNA repair protein RAD51 homolog 1 (Homo sapiens); experiment: Inhibition of RAD51 (unknown origin) assessed as inhibition of DNA pairing by measuring D-loop formation between [32P]-ssDNA and homologous supercoiled pUC19 DNA at 10 times RAD52 IC50 incubated for 15 mins by gel electrophoresis method relative to control
Homo sapiens [4] = organism: Homo sapiens; experiment: Growth inhibition of BRCA1-deficient human UWB1.289 cells at 2.5 to 10 uM following media refreshment every 3 days and measured on day 10 by CellTiter-Glo assay; type: functional
CAPAN-1 = experiment: Growth inhibition of BRCA2-deficient human Capan1 cells at 2.5 to 10 uM following media refreshment every 3 days and measured on day 10 by CellTiter-Glo assay; type: functional, cell-based
U2OS [5] = experiment: Effect on homology dependent recombination in human U2OS cells co-expressing DR-GFP assessed as measuring green fluorescence at 5 uM flow cytometry (reference value: 7.13%); type: functional
[6] = target: T2, DNA repair protein RAD52 homolog (Homo sapiens); experiment: Inhibition of RAD52 in human U2OS cells co-expressing SA-GFP assessed as reduction in single strand DNA annealing incubated for 48 hrs by GFP+ positive cells detection based flow cytometry; type: cell-based
[7] = target: T2, DNA repair protein RAD52 homolog (Homo sapiens); experiment: Inhibition of RAD52 in human U2OS cells co-expressing SA-GFP assessed as reduction in single strand DNA annealing at 30 uM incubated for 48 hrs by GFP+ positive cells detection based flow cytometry relative to control; type: cell-based
[8] = target: T2, DNA repair protein RAD52 homolog (Homo sapiens); experiment: Inhibition of RAD52 in human U2OS cells co-expressing SSA-GFP assessed as inhibition of repair of I-Scel-induced double stranded breaks by measuring green fluorescence at 15 uM by flow cytometry (reference value: 7.1%); type: cell-based; set-up: scale not given: the % may be the effect or the level left
U2OS [9] = experiment: Effect on homology dependent recombination in human U2OS cells co-expressing pMX-GFP at 10 to 30 uM by flow cytometry; type: functional, cell-based
U2OS [10] = experiment: Effect on homology dependent recombination in human U2OS cells co-expressing DR-GFP at 10 to 30 uM flow cytometry; type: functional, cell-based
[11] = target: T3, DNA repair protein RAD51 homolog 1 (Mus musculus, UniProt Q08297); experiment: Induction of RAD51 foci formation in BCR-ABL1-positive and BRCA1-proficient mouse 32Dcl3 cells by AlexaFluor-594 staining based inverted fluorescence microscopy
T3 sequence (Q08297 whole entry): T1 sequence (whole entry) with N10S, F46Y, A76T, A194G

[12] = target: T2, DNA repair protein RAD52 homolog (Homo sapiens); experiment: Inhibition of RAD52 in human U2OS cells co-expressing SSA-GFP assessed as inhibition of repair of I-Scel-induced double stranded breaks by measuring green fluorescence at 10 uM by flow cytometry (reference value: 7.1%); type: cell-based; set-up: scale not given: the % may be the effect or the level left
[13] = target: T2, DNA repair protein RAD52 homolog (Homo sapiens); experiment: (§1) Inhibition of RAD52 (unknown origin) expressed in BCR-ABL1-positive and BRCA1-deficient mouse 32Dcl3 cells expressing GFP-RAD52 assessed as cisplatin-induced RAD52 foci formation at 2.5 uM by AlexaFluor-594 staining based inverted fluorescence microscopy (reference value: 38.7 +/- 10%); type: cell-based; set-up: scale not given: the % may be the effect or the level left
Homo sapiens [14] = organism: Homo sapiens; experiment: Growth inhibition of BCR-ABL1-positive and BRCA1-deficient human CML cells at 2.5 to 10 uM treated with compound on days 0 and 2 and measured on day 4 by trypan blue staining based assay; type: functional
U2OS [15] = experiment: Effect on homology dependent recombination in human U2OS cells co-expressing DR-GFP assessed as measuring green fluorescence at 30 uM flow cytometry (reference value: 7.13%); type: functional
Homo sapiens [16] = organism: Homo sapiens; experiment: Growth inhibition of BRCA1-proficient human CML cells at 2.5 to 10 uM treated with compound on days 0 and 2 and measured on day 4 by trypan blue staining based assay; type: functional
U2OS [17] = experiment: Effect on homology dependent recombination in human U2OS cells co-expressing DR-GFP assessed as measuring green fluorescence at 20 uM flow cytometry (reference value: 7.13%); type: functional
Salmon testes DNA = experiment: Binding affinity to salmon sperm DNA incubated for 20 mins by acridine orange displacement based fluorescence polarization assay; type: nucleic-acid assay; details: Salmonidae
[18] = target: T4, DNA repair protein RAD51 homolog 1 (Mus musculus) (UniProt Q08297); experiment: Inhibition of RAD51 in BCR-ABL1-positive and BRCA1-proficient mouse 32Dcl3 cells assessed as reduction in cisplatin-induced RAD51 foci formation by AlexaFluor-594 staining based inverted fluorescence microscopy
T4 sequence (whole entry): T1 sequence (whole entry) with N10S, F46Y, A76T, A194G

[19] = target: T2, DNA repair protein RAD52 homolog (Homo sapiens); experiment: Inhibition of RAD52 in human U2OS cells co-expressing SSA-GFP assessed as inhibition of repair of I-Scel-induced double stranded breaks by measuring green fluorescence at 20 uM by flow cytometry (reference value: 7.1%); type: cell-based; set-up: scale not given: the % may be the effect or the level left
[20] = target: T2, DNA repair protein RAD52 homolog (Homo sapiens); experiment: Inhibition of RAD52 in human U2OS cells co-expressing SSA-GFP assessed as inhibition of repair of I-Scel-induced double stranded breaks by measuring green fluorescence at 30 uM by flow cytometry (reference value: 7.1%); type: cell-based; set-up: scale not given: the % may be the effect or the level left
[21] = target: T2, DNA repair protein RAD52 homolog (Homo sapiens); experiment: Inhibition of RAD52 in human U2OS cells co-expressing SSA-GFP assessed as inhibition of repair of I-Scel-induced double stranded breaks by measuring green fluorescence at 5 uM by flow cytometry (reference value: 7.1%); type: cell-based; set-up: scale not given: the % may be the effect or the level left
U2OS [22] = experiment: Effect on homology dependent recombination in human U2OS cells co-expressing DR-GFP assessed as measuring green fluorescence at 15 uM flow cytometry (reference value: 7.13%); type: functional
U2OS [23] = experiment: Effect on homology dependent recombination in human U2OS cells co-expressing DR-GFP assessed as measuring green fluorescence at 10 uM flow cytometry (reference value: 7.13%); type: functional
[24] = target: T2, DNA repair protein RAD52 homolog (Homo sapiens); experiment: as §1, with “formation by measuring fraction of cell without foci” for “formation”, “48.4” for “38.7”, “6.2%)” for “10%)”; set-up: scale not given: the % may be the effect or the level left
[25] = target: T2, DNA repair protein RAD52 homolog (Homo sapiens); experiment: Inhibition of RAD52 (unknown origin) expressed in BCR-ABL1-positive and BRCA1-deficient mouse 32Dcl3 cells expressing GFP-RAD52 assessed as reduction in cisplatin-induced RAD52 foci formation at 2.5 uM by AlexaFluor-594 staining based inverted fluorescence microscopy relative to control; type: cell-based
[26] = target: T5, DNA repair protein RAD52 homolog (Homo sapiens, UniProt P43351); experiment: Effect on RAD52 (unknown origin) expressed in BCR-ABL1-positive and BRCA1-deficient mouse 32Dcl3 cells expressing GFP-RAD52 assessed as induction of RAD52 foci formation by AlexaFluor-594 staining based inverted fluorescence microscopy; type: cell-based
T5 sequence (P43351 whole entry): T2 sequence (whole entry)

U2OS [27] = experiment: Effect on GFP+ positive cells in human U2OS cells co-expressing pMX-GFP up to 30 uM incubated for 48 hrs by flow cytometry relative to control; type: ADME, cell-based

inhibition [1]: > 90% | inhibition [2]: Dose-dependent effect | inhibition [3]: 111%
Structure (SMILES): CCCN(CCC)CCCNC(=S)Nc1ccc2nc(N3CCN(C)CC3)cc(C)c2c1

inhibition [1]: > 90% | inhibition [2]: Dose-dependent effect | inhibition [3]: 75.1%
Structure (SMILES): COc1ccc(OC)c(Nc2nc(NCCO)c3ccccc3n2)c1
growth inhibition (GI) (Homo sapiens [4]): Active | growth inhibition (GI) (CAPAN-1): Active

inhibition [1]: > 90% | inhibition [2]: Dose-dependent effect | inhibition [3]: 58.6%
Structure (SMILES): CCCCN(CC)CCNC(=O)c1cc2c(-c3ccc(Cl)cc3)nn(C)c2s1
growth inhibition (GI) (Homo sapiens [4]): Active | growth inhibition (GI) (CAPAN-1): Active

inhibition [6]: Dose-dependent effect | inhibition [1]: > 90% | fold change (FC) [7]: 3.4 | Activity [8]: 4.08% | Activity [12]: 6.28% | Activity [13]: 17% | Activity (Salmon testes DNA): inactive | inhibition [18]: inactive | inhibition [2]: Dose-dependent effect | Activity [19]: 4.94% | Activity [20]: 2.43% | Activity [21]: 6.54% | Activity [24]: 57.6% | fold change (FC) [25]: 2 to 2.5
Structure (SMILES): CCN(CC)CCN=C(S)Nc1ccc2nc(N3CCN(C)CC3)cc(C)c2c1
growth inhibition (GI) (Homo sapiens [4]): Active | Activity (U2OS [5]): 6.98% | Activity (U2OS [9]): inactive | Activity (U2OS [10]): inactive | Activity [11]: Non-Toxic | growth inhibition (GI) (Homo sapiens [14]): Active | Activity (U2OS [15]): 5.18% | growth inhibition (GI) (Homo sapiens [16]): inactive | Activity (U2OS [17]): 6.2% | growth inhibition (GI) (CAPAN-1): Active | Activity (U2OS [22]): 5.7% | Activity (U2OS [23]): 6.68% | Activity [26]: Non-Toxic | Activity (U2OS [27]): Non-Toxic

inhibition [1]: > 90% | inhibition [2]: Dose-dependent effect | inhibition [3]: 35.3%
Structure (SMILES): Cn1nc(-c2ccc(Cl)cc2)c2cc(C(=O)NCCCN3CCCC3)sc21

inhibition [1]: > 90% | inhibition [2]: Dose-dependent effect | inhibition [3]: 108%
Structure (SMILES): CCCCN(CC)CCCN=C(S)Nc1ccc2nc(N3CCN(C)CC3)cc(C)c2c1

inhibition [1]: > 90% | inhibition [2]: Dose-dependent effect | inhibition [3]: 97.5%
Structure (SMILES): Cc1c(C(=O)Nc2ccc(S(=O)(=O)N(C)C3CCN(C)CC3)cc2)oc2c(Cl)cccc12

inhibition [1]: > 90% | inhibition [2]: Dose-dependent effect | inhibition [3]: 93.7%
Structure (SMILES): COc1ccc(-c2nc(C(=O)NCCCN3CCOCC3)cc3c2[nH]c2ccccc23)cc1OC
